{
  "source": "paper PMC7400135",
  "about": "“3-(5-Nitrofuran-2-yl)prop-2-en-1-one Derivatives, with Potent Antituberculosis Activity, Inhibit A Novel Therapeutic Target, Arylamine N-acetyltransferase, in Mycobacteria” (Antibiotics, 2020)",
  "data": [
    {"system": "multidrug-resistant M. tuberculosis Peru isolate", "test": "microbe, parasite or virus in culture", "type": "cell-based", "details": "Mycobacterium tuberculosis, 336 h, read-out: MIC MDR-TB", "units": {"MIC": "µg/mL"}, "values": [
      {"molecule": "O=C(/C=C/c1ccc([N+](=O)[O-])o1)c1ccc(N2CCCCC2)cc1", "note": "[Compound 2]", "MIC": 1.95},
      {"molecule": "CO[C@H]1/C=C/O[C@@]2(C)Oc3c(C)c(O)c4c(O)c(c(/C=N/N5CCN(C)CC5)c(O)c4c3C2=O)NC(=O)/C(C)=C\\C=C\\[C@H](C)[C@H](O)[C@@H](C)[C@@H](O)[C@@H](C)[C@H](OC(C)=O)[C@@H]1C", "note": "[Rifampicin]", "MIC": "> 500"},
      {"molecule": "NNC(=O)c1ccncc1", "note": "[Isoniazid, reference compound]", "MIC": "> 500"},
      {"molecule": "O=C(/C=C/c1ccc([N+](=O)[O-])o1)c1ccc(N2CCOCC2)cc1", "note": "[Compound 1]", "MIC": 0.976},
      {"molecule": "CN(Cc1cnc2nc(N)nc(N)c2n1)c1ccc(C(=O)N[C@@H](CCC(=O)O)C(=O)O)cc1", "note": "[Methotrexate, reference compound]", "MIC": 250},
      {"molecule": "O=[N+]([O-])c1cn2c(n1)OC[C@@H](OCc1ccc(OC(F)(F)F)cc1)C2", "note": "[Pretomanid]", "MIC": 0.488},
      {"molecule": "CCN(CC)c1ccc(C(=O)/C=C/c2ccc([N+](=O)[O-])o2)cc1", "note": "[Compound 3]", "MIC": 0.488},
      {"molecule": "CC[C@@H](CO)NCCN[C@@H](CC)CO", "note": "[Ethambutol]", "MIC": 8}
    ]}
  ]
}
